Assay results published in patent US5021439A, “Cerebral function ameliorating agents related to Tan-950 A” (priority 1988, dated 1991).
pIC50: −log10 of the molar value. Read-outs that look alike come from different tables or passages of the source.

Experiments:
[1] = biological target: NMDA-type receptor; experiment: Binding assay of NMDA-type receptor (3H-CPP) on rat forebrain crude synaptic membrane; details: for pIC50: 10 nM 3H-CPP, pH 7.1, 0° C., 15 min, read-out: Affinity to NMDA-type receptor (3H-CPP), IC50
Source text: (§1) The receptors of the exitatory amino acid (especially, glutamate) are classified into NMDA type, Quisqualate type and Kainate type. 3H-CPP [3-(2-carboxypiperazin-4-yl)propyl-1-[…]] as the ligand (a radio active substance which has high affinity for the receptor) for the NMDA-type-receptor, ^3 H-AMPA (DL-α-amino-3-hydroxy-5-methylisoxazole-4-propionic acid) as the ligand for the quisqualate-type-receptor, and ^3 H-kainic acid as the ligand for the kainate-type-receptor were used respectively. A sample of the crude synaptic membrane prepared from the forebrain of rat was washed 4 times by Tris hydrochloric acid buffer (pH 7.1) and kept in a freezing condition at -20° C. until its use.
(§2) Samples of the frozen crude synaptic membrane were melted and, after floating on 50 mM Tris hydrochloric acid buffer (pH 7.1), incubated for 30 minutes at 37° C. After the incubation, the synaptic membrane was centrifuged (48,000×g) and washed 3 times with 50 mM Tris hydrochloric acid buffer and used in the test.
(§3) In the binding assay of the NMDA-type-receptor, samples of the synaptic membrane were incubated in the presence or absence of a test compound together with 10 nM ^3 H-CPP in 50 mM Tris hydrochloric acid buffer (pH 7.1, 0° C.) for 15 minutes. The sediment (pellet) containing synapse membrane which was recovered by centrifugation of the incubation solution was rinsed with 50 mM Tris hydrochloric acid buffer (pH 7.1) and dissolved in 0.5 ml of Protosol® (made by New England Nuclear Inc.). In the binding assay of Quisqualate-type-receptor and Kainate-type-receptor, samples of the synapse was incubated in the presence or absence of a test compound in 5 nM ^3 H-AMPA (Quisqualate-type-receptor) or 2 nM ^3 H-Kainic acid (Kainate-type-receptor) together with 50 mM Tris hydrochloric acid buffer (pH 7.1, 0° C.) for 90 minutes. The solution was filtered with Whatman GF/B filter (Whatman®, made by Whatman Inc.) under reduced pressure and the filter was washed 3 times with 50 mM Tris hydrochloric acid buffer. The radioactivity on the filter was measured by a conventional method. The specific binding amount was determined by subtracting the non-specific binding from the total binding, taking the binding in the presence of an excessive non-radioactive L-sodium glutamate (1 mM) as the amount of the non-specfic binding, i.e., the binding to anything other than the receptor. The 50% inhibiting concentration (IC50) of the compound to be tested was determined as the concentration which inhibits 50% of the specific receptor binding of ^3 H-CPP, ^3 H-AMPA or ^3 H-kainic acid.

[2] = biological target: Quisqualate-type receptor; experiment: Binding assay of Quisqualate-type receptor (3H-AMPA) on rat forebrain crude synaptic membrane; details: for pIC50: 5 nM 3H-AMPA, pH 7.1, 0° C., 90 min, read-out: Affinity to Quisqulate-type receptor (3H-AMPA), IC50; for Affinity to the Quisqualate-type-receptor (in words): summary of Table 5
Source text: as §1, §2
as §3, with “receptor.” for “receptor. The 50% inhibiting concentration (IC50) of the compound to be tested was determined as the concentration which inhibits 50% of the specific receptor binding of ^3 H-CPP, ^3 H-AMPA or ^3 H-kainic acid.”

[3] = biological target: Kainate-type receptor; experiment: Binding assay of Kainate-type receptor (3H-kainic acid) on rat forebrain crude synaptic membrane; details: for Affinity to Kainate-type receptor (3H-KA), IC50: 2 nM 3H-Kainic acid, pH 7.1, 0° C., 90 min; for Affinity to the Kainate-type-receptor (in words): summary of Table 5
Source text: as §1, §2
as §3, with “receptor.” for “receptor. The 50% inhibiting concentration (IC50) of the compound to be tested was determined as the concentration which inhibits 50% of the specific receptor binding of ^3 H-CPP, ^3 H-AMPA or ^3 H-kainic acid.”

[4] = tested on: glutamate receptor (NMDA type, Quisqualate type and Kainate type); experiment: Affinity for the glutamate receptors of the brain, 3 sub-types taken together; format: binding, rat; details: summary of Table 5
Source text: as §1, §2, §3

[5] = tested on: neurons of rat hippocampus; experiment: Excitatory action on neurons of rat hippocampus in vitro (CA1 spike recording in slices); format: cell-based; details: rat hippocampal slices, CA1 pyramidal cell layer, Krebs-Ringer solution 33° C., read-out: Minimum effective concentration to induce firing of hippocampus nervous cell
Method: Male Wister rats (body weight: 300 -350 g) were used in the test. After cutting the head of rats, the brain was quickly taken out and […] thickness of the sliced samples of a hippocampus was prepared by a slice cutter. These samples were incubated in a nutrient solution (Krebs-Ringer solution, 33° C.) saturated with a mixed gas of 95% of oxygen gas and 5% of carbon dioxide gas for one or more hours. The test was carried out in the perfusion cisterna with perfusing at the flow speed of 1.5 ml/min. The action potential (spike) in CA1 pyramidal cell layer of the hippocampus was recorded extracellularlly by using a glass electrode filled with 2M NaCl solution. The test compounds were added to the perfusate and the change in number of the spikes with passage of time was counted by a pulse counter and recorded on the recorder. The Krebs-Ringer's solution contains 124 mM of NaCl, 5 mM of KCl, 1.24 mM of KH2 PO4, 1.3 mM of MgSO4, 2.4 mM of CaCL2, 26 mM of […] and 10 mM of glucose.

[6] = tested on: Memory Dysfunction Induced by Cycloheximide Administration; experiment: Improvement of cycloheximide-induced memory dysfunction, passive avoidance in mice; format: in vivo, C57BL/b mice; details: for Tested Retention Time (percentage to control group), latency: i.p., twice, 30 min before acquisition and before retention test, memory impairment group = 100; for Effect on memory dysfunction / latency (in words): mouse, in vivo
Method: Experimental memory disturbance was induced by administering a protein synthesis inhibiting agent, cycloheximide to C57BL/b male mice of 5 week-age. The memory test was carried out using a passive avoidance learning equipment consisting of two chambers of dark and bright. At first, a memory acquisition process of mice was carried out. In this process, a mouse was released in the bright chamber and the guillotine type door connecting between bright and dark chambers was open. Immediately after the mouse that likes a dark place having entered into the dark chamber, said guillotine type door was closed and an electric shock of 0.4 mA was given to the mouse for 3 seconds through the floor grid. Mice learned through this process to receive electric shock from the floor once they move to the dark chamber. However, the memory formation in mice that received cycloheximide (60 mg/Kg) subcutaneously 30 minutes before this memory acquisition process becomes insufficient. The memory retention test was carried out in accordance with similar procedures with mice which received cycloheximide (memory dysfunction group) and normal mice on the next day that the memory acquisition process was carried out. A time from the release of mice in the bright chamber to the entry into the dark chamber through the guillotine type door opened was measured (latency). The latency was shorter in the memory dysfunction group and the effectiveness of the compounds was determined in terms of a degree of the prolongation of latency. The test compounds were intraperitoneally administered twice in total to the mice each 30 minutes before the memory acquisition process and the memory keeping test.
The effect of the compounds in improving a memory dysfunction was expressed as a percentage in which the latency in the memory impairment group at the memory retention test was regarded as 100, and the results are shown in Table 7.

[7] = Acute toxicity in mouse; details: in vivo, any administration routes (iv, ip, sc, po)
[8] = Conversion of each component of TAN-950 in aqueous solution (HPLC); format: physicochemical; details: 60° C.
Source text: The mixture of TAN-950A - E was applied to HPLC in order to isolate each component thereof and each component was isolated as approximately single peak compound.

[9] = Solubility; format: physicochemical
[10] = starting material heated in aqueous solution, 1 hour

For N[C@H](Cc1c[nH]oc1=O)C(=O)O [Compound 72], the pIC50 [1] was 5.21, the “Affinity to the NMDA-type-receptor (in words)” value ([1]; summary of Table 5) was “high affinity” and the pIC50 [2] was 4.85. The “Affinity to Kainate-type receptor (3H-KA), IC50” value (“Affinity … IC50” below) [3] was 37 µM, the “Affinity to the 3 sub-type receptors (in words)” value [4] was “high affinities to the 3 sub-type receptors” and the minimal effective concentration ([5]; Rattus norvegicus, Neuron) was no less than 300 µM. The minimal effective concentration ([5]; listed as 72 (hydrochloride)) was 300 µM, the “Tested Retention Time (percentage to control group), latency” value ([6]; 1 mg/kg) was 217 percentage to control group and the “Tested Retention Time (percentage to control group), latency” value ([6]; 10 mg/kg, * in table: p < 0.05) was 278 percentage to control group. For the same molecule, the “Effect on memory dysfunction / latency (in words)” value [6] was “prolong the latency significantly”.
With Cc1[nH]oc(=O)c1C[C@@H](N)C(=O)O [Compound 78] the pIC50 [1] was 4.17, the pIC50 [2] was 5.41 and the “Affinity to the Quisqualate-type-receptor (in words)” value [2] was “strong affinity”. The “Affinity … IC50” value [3] was 98 µM, the “Affinity to the 3 sub-type receptors (in words)” value [4] was “high affinities to the 3 sub-type receptors” and the minimal effective concentration ([5]; Rattus norvegicus, Neuron) was no less than 30 µM. For the same molecule, the “Tested Retention Time (percentage to control group), latency” value ([6]; 1 mg/kg) was 179 percentage to control group, the “Tested Retention Time (percentage to control group), latency” value ([6]; 10 mg/kg, * in table: p < 0.05) was 222 percentage to control group and the “Effect on memory dysfunction / latency (in words)” value [6] was “prolong the latency significantly”.
With N[C@@H](CCC(=O)O)C(=O)O [Glutamic acid, reference compound] the “Tested Retention Time (percentage to control group), latency” value ([6]; 10 mg/kg, * in table: p < 0.05) was 101 percentage to control group.
For Cc1[nH]oc(=O)c1C[C@H](N)C(=O)O [Compound 75], the pIC50 [1] was 4.96, the pIC50 [2] was 6.51 and the “Affinity to the Quisqualate-type-receptor (in words)” value [2] was “strong affinity”. The “Affinity … IC50” value [3] was 7.3 µM, the “Affinity to the Kainate-type-receptor (in words)” value [3] was “strong affinity” and the “Affinity to the 3 sub-type receptors (in words)” value [4] was “high affinities to the 3 sub-type receptors”. The minimal effective concentration ([5]; Rattus norvegicus, Neuron) was no less than 1 µM, the “Tested Retention Time (percentage to control group), latency” value ([6]; 1 mg/kg) was 205 percentage to control group and the “Tested Retention Time (percentage to control group), latency” value ([6]; 10 mg/kg, * in table: p < 0.05) was 184 percentage to control group. The “Effect on memory dysfunction / latency (in words)” value [6] was “prolong the latency significantly”.
For N[C@@H](Cc1c[nH]oc1=O)C(=O)O [Compound 1, TAN-950A], the pIC50 [1] was 4.72, the pIC50 [2] was 6.55 and the “Affinity to the Quisqualate-type-receptor (in words)” value [2] was “strong affinity”. The “Affinity … IC50” value [3] was 3.6 µM, the “Affinity to the Kainate-type-receptor (in words)” value [3] was “strong affinity” and the “Affinity to the 3 sub-type receptors (in words)” value [4] was “high affinities to the 3 sub-type receptors”. It also gave a minimal effective concentration ([5]; Rattus norvegicus, Neuron) of no less than 300 µM, a minimal effective concentration ([5]; listed as 1 (sodium salt)) of 300 µM and an LD50 [7] greater than 4000 mg/kg. The “Conversion in aqueous solution (in words)” value ([8]; aqueous solution) was “converted mainly to TAN-950B and D, but slightly to TAN-950C and E”, the “TAN-950A in resulting substance, area percentage by HPLC” value [8, 10] was 63.8% and the “TAN-950B in resulting substance, area percentage by HPLC” value [8, 10] was 13.0%. The “TAN-950C in resulting substance, area percentage by HPLC” value [8, 10] was 5.7%, the “TAN-950D in resulting substance, area percentage by HPLC” value [8, 10] was 12.1% and the “TAN-950E in resulting substance, area percentage by HPLC” value [8, 10] was 3.1%. The Solubility in acetone ([9]; acetone) was “Sparingly soluble”, the Solubility in chloroform ([9]; chloroform) was “Sparingly soluble” and the Solubility in dimethylsulfoxide ([9]; dimethylsulfoxide) was “Soluble”. For the same molecule, the “Solubility in ethyl acetate” value ([9]; ethyl acetate) was “Sparingly soluble”, the Solubility in methanol ([9]; methanol) was “Soluble” and the Solubility in water ([9]; water) was “Soluble”.
